Data as given in patent US20240342138A1, “MICROTUBULE TARGETING AGENTS” (BPGbio, Inc., priority 2023, published 2024).

What was measured:
[1] = target: P-gp (Homo sapiens, UniProt P08183); test: P-gp substrate status; format: in vitro ADME
[2] = system: Triple Negative Breast Cancer patient-derived organoids CTG-1520, CTG-0896, CTG-1017; test: Viability of PDO models of taxane resistance (CellTiter-Glo, 5 days); format: cell-based, human
Description: FIGS. 9A and 9B show potency of Compound 1 in patient-derived organoid (PDO) models of taxane resistance. Patient-derived organoids were treated with Compound 1, paclitaxel or controls (0.1% DMSO, positive control—10% DMSO) for 5 days. Viability was assessed using the CellTiter-Glo® assay. IC50 and maximal (max) inhibition values were extrapolated from the viability curves. A) Model overview and dose response curves to Compound 1 and paclitaxel. B) Summary of CellTiter-Glo results in all three models tested. Compiled data of N=4 replicates.
CTG-1520 and CTG-0896 were derived from Triple Negative Breast Cancer (TNBC) patients post-treatment, and progression on a taxane-based therapy and the models' resistance to paclitaxel was confirmed by testing in vivo PDX (Patient-derived xenograft) tumor growth. […] Compound 1 and paclitaxel were tested head-to-head in each model in a dose-curve setting. 10% DMSO was used as the positive control for induction of 100% cell cytotoxicity.

[3] = system: COLO205 cells; test: In vitro potency, ATPlite 1Step (NTRC Oncolines); format: cell-based; settings: Homo sapiens, COLO 205
Description: FIG. 11A-11E show the efficacy of Compound 1 in a colorectal cancer xenograft model (COLO205). A) In vitro potency of Compound 1 in COLO205 cells as evaluated by ATPlite 1Step™ Perkin Elmer (performed by NTRC Oncolines). B) COLO205 cells were implanted subcutaneously in nude mice and tumors were allowed to grow to a volume of 210 mm3 followed by randomization of animals into three (3) groups (vehicle control, 75 mg/kg, 150 mg/kg Compound 1) with 12 animals per group. A Compound 1 solid dispersion was prepared prior to each dosing and administered by oral gavage two times a day (BID). Mean tumor volume of each group over time and the growth of tumor in each individual animal was graphed. For each individual animal of […] group TGI (%) was calculated based on the tumor growth inhibition of individual tumor at each given day of the study compared to the average of the group for that given day of the study. P-values were calculated using two-tailed distribution and two-sample equal variance (homoscedastic) for each group treated with Compound 1 for each given day of the study in reference to vehicle control. […] The level of two biomarkers, pHH3 and CCNB1 in each tissue was measured and graphed as the Min-to-Max plot and scatter plot of the level of each biomarker. […] E) Body weight of each individual animal was measured on each day of the study and graphed using Graphpad Prism. […]

[4] = system: C6 cells; test: In vitro potency in glioblastoma cells, Realtime-Glo assay; format: cell-based; settings: Rattus norvegicus, FIG. 14A, read-out: In vitro potency (anti-cancer activity)
Description: (§1) FIG. 14A-14E show the efficacy of Compound 1 in glioblastoma cell lines in vitro and in a glioblastoma rat model (C6). A) In vitro potency of Compound 1 in four different glioblastoma cell lines as evaluated by Realtime-Glo™ assay (C6, and U87 cells) or ATPlite 1Step™ Perkin Elmer (performed by NTRC Oncolines; T98G and A-172 cells). B) Study design overview: C6 rat glioma cells (3×10^5) were implanted into the right entorhinal cortex/subiculum region of male Sprague Dawley rats and tumor burden was assessed 14 days post inoculation using MRI and animals randomized into […] (4) groups (vehicle control, 5 mg/kg, 10 mg/kg, and 20 mg/kg Compound 1) with 4 animals per group. […] C) Body weights were measured every two days. […]
(§2) Glioblastoma (GBM) is the most common and highly malignant form of primary brain tumor with a poor prognosis despite advances in treatments. […] Accordingly, the in vitro potency of Compound 1 was examined in four different glioblastoma cell lines as evaluated by Realtime-Glo™ assay (C6, and U87 cells) or ATPlite 1Step™ Perkin Elmer (performed by NTRC Oncolines; T98G and A-172 cells). […] Therefore, the in vivo tumor activity of Compound 1 was next assessed in Sprague Dawley rats implanted with C6 rat glioma cells into the right entorhinal cortex/subiculum region (AP: −7 mm; ML: 4.5 mm, DV: 5 mm). […]

[5] = system: U87 cells; test: as above; format: cell-based; settings: Homo sapiens, U-87 MG, FIG. 14A, read-out: In vitro potency (anti-cancer activity)
Description: as §1, §2

[6] = system: A-172 cells; test: In vitro potency in glioblastoma cells, ATPlite 1Step (NTRC Oncolines); format: cell-based; settings: Homo sapiens, FIG. 14A, read-out: In vitro potency (anti-cancer activity)
Description: as §1, §2

[7] = system: T98G cells; test: as above; format: cell-based; settings: Homo sapiens, FIG. 14A, read-out: In vitro potency (anti-cancer activity)
Description: as §1, §2

Sequence of P-gp (P08183 whole entry): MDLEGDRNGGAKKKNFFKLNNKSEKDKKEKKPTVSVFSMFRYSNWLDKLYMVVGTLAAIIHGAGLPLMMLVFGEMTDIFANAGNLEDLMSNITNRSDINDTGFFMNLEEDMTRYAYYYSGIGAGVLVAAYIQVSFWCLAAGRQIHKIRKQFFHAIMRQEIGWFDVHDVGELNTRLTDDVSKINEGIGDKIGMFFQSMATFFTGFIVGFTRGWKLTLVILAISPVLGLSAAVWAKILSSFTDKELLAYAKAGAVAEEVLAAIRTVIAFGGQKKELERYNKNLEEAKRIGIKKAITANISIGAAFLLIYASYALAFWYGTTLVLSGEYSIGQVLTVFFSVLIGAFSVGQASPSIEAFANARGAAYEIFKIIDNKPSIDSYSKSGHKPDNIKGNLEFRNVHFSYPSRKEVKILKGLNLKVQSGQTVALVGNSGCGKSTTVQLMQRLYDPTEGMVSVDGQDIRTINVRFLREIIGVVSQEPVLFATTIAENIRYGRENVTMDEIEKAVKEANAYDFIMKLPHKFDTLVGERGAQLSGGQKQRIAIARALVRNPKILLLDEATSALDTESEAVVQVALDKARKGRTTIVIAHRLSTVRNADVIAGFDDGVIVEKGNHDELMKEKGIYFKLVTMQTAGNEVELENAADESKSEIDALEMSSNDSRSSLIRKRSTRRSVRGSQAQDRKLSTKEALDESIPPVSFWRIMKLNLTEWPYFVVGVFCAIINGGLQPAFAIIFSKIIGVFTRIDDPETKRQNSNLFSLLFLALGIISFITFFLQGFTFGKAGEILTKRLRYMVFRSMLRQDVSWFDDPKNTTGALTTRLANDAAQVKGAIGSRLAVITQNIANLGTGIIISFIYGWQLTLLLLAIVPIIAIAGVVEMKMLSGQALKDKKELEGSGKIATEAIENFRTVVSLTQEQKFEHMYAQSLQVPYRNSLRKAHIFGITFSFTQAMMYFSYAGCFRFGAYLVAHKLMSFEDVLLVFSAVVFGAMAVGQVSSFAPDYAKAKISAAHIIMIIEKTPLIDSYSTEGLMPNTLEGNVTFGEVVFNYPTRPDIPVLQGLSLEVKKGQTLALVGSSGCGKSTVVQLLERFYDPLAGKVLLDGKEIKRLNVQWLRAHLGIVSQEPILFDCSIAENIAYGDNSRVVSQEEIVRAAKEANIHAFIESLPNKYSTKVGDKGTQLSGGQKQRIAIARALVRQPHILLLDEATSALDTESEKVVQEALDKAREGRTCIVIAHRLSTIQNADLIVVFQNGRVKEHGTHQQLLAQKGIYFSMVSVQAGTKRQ

COc1ccccc1-c1nc(CNC(=O)c2ccccc2OC(F)F)n[nH]1 [Compound 1, 2-(difluoromethoxy)-N-[[5-(2-methoxyphenyl)-1H-1,2,4-triazol-3-yl]methyl]benzamide]
P-gp substrate [1]: not a substrate for P-gp
Potency in PDO models ([2]; CTG-1520, CTG-0896, CTG-1017, FIG. 9): potent in all three (3) PDO models tested
Retention of potency in matched PDO models ([2]; same patient before (CTG-1017) and after (CTG-1520) taxane-based chemotherapy): retained potency
IC50 ([3]; COLO205): 0.067 µM
Emax ([3]; COLO205, in vitro, read-out: Maximum effect (%)): 95%
IC50 [4]: 0.042 µM
IC50 [5]: 0.089 µM
IC50 [6]: 0.048 µM
IC50 [7]: 0.039 µM
